This is an account of results in patent US7312219B2, “Heteroaromatic inhibitors of fructose 1,6-bisphosphatase” (Metabasis Therapeutics, Inc., priority 1998, dated 2007).

Series [1] is described as follows: Estimation of the Oral Bioavailability of Phosphonic Acids and their Prodrugs. It is filed as in vivo, rat. The settings on record: fasted rats, oral 10–50 mg/kg, 24 h urinary recovery of phosphonic acid, oral vs intravenous. As to the method:
Phosphonic acids were dissolved in water, and the solution adjusted to neutrality with sodium hydroxide. Prodrugs were dissolved in 10% ethanol/90% polyethlene glycol (mw 400). Compound was administered by oral gavage to 18-hour fasted Sprague-Dawley rats (220–250 g) at doses ranging from 10–50 mg/kg. The rats were subsequently placed in metabolic cages and urine was collected for 24 hours. The quantity of phosphonic acid excreted into urine was determined by HPLC analysis as described in Example G. In a separate study, urinary recovery was determined following intravenous (tail vein) administration of compound (in the case of the prodrugs, the appropriate parent phosphonic acid was administered i.v.).

A further series has as its system Fasted Rats. The experiment in a line: Blood Glucose Lowering Following Intravenous Administration to Fasted Rats. The class given is in vivo, rat. The settings on record: 18 h fasted Sprague Dawley rats, 1 hour, relative to saline-treated controls. As to the method:
Inhibitors were disolved in water and the solution adjusted to neutrality with NaOH. Blood samples were obtained from the tail vein of conscious animals just prior to injection and after 1 hour. Blood glucose was measured using a HemoCue Inc. glucose analyzer according to the instructions of the manufacturer.

A short description of series [2]: Analysis of Drug Levels and Liver Accumulation in Rats. It is filed as in vivo, rat. The settings on record: fasted rats, 10 mgs/kg i.v., one hour post injection; for concentration at 1 h: Sprague-Dawley, rat, iv, read-out: Plasma Conc.; for Plasma Conc. / concentration at 1 h: plasma. The method, then: The compound was dissolved in water and the solution adjusted to neutrality with NaOH. One hour post injection rats were anesthetized with halothane and a liver biopsy (approx. 1 g) was taken as well as a blood sample (2 ml) from the posterior vena cava. A heparin flushed syringe and needle were used for blood collection. The liver sample was immediately homogenized in ice-cold 10% perchloric acid (3 ml), centrifuged, and the supernatant neutralized with ⅓rd volume of 3 M KOH/3 M KHCO3. […] Plasma was prepared from the blood sample by centrifugation and extracted by addition of methanol to 60% (v/v). The methanolic extract was clarified by centrifugation and filtration and then analyzed by HPLC as described above.

A further series concerns Fasted Rat. The experiment in a line: Glucose Lowering Following Oral Administration to the Fasted Rat. It is filed as in vivo. The settings on record: oral gavage, 18-hour fasted rats, relative to saline controls. As to the method: Compounds were administered by oral gavage to 18-hour fasted, Sprague Dawley rats (250–300 g, n =3/4/group). Phosphonic acids were prepared in deionized water, and the solution adjusted to neutrality with solidum hydroxide. Prodrugs were dissolved in polyethylene glycol (mw 400). […] The table below indicates the maximum glucose lowering achieved relative to control animals dosed with saline.

For series [3], the system named is Gluconeogenesis in Rat Hepatocytes. The experiment in a line: Inhibition of Gluconeogenesis in Rat Hepatocytes. It is filed as cell-based. The conditions noted are these: 10 mM lactate, 1 mM pyruvate, 1 hour incubation, read-out: IC50 Glucose Production. As to the method: Hepatocytes were prepared from overnight fasted Sprague-Dawley rats (250–300 g) according to the procedure of Berry and Friend (Berry, M. N., Friend, D. S., 1969, J. Cell. Biol. 43, 506–520) as modified by Groen (Groen, A. K., Sips, H. J., Vervoorn, R. C., Tager, J. M. , 1982, Eur. J. Biochem. 122, 87–93). Hepatocytes (75 mg wet weight/ml) were incubated in 1 ml Krebs-bicarbonate buffer containing 10 mM Lactate, 1 mM pyruvate, 1 mg/ml BSA, and test compound concentrations from 1 to 500 μM. Incubations were carried out in a 95% oxygen, 5% carbon dioxide atmosphere in closed, 50-ml Falcon tubes submerged in a rapidly shaking water bath (37° C.). After 1 hour, an aliquot (0.25 ml) was removed, transferred to an Eppendorf tube and centrifuged. 50 μl of supernatant was then assayed for glucose content using a Sigma Glucose Oxidase kit as per the manufacturer's instructions.

Series [4] is described as follows: Oral Absorption Determinations of Prodrugs in the Rat. The conditions noted are these: normal fed rats.
The mark [5] stands for this setting: Rattus norvegicus, iv, 10 mg/kg i.v.

Where a name gives a salt, the structure may show the parent alone. Read-outs that look alike come from different tables or passages of the source.

As to “2-Methyl-5-isobutyl-4-{2-[5-bis(thiobenzoylmethyl)phosphono]furanyl}thiazole [Compound 19.9]”, the “% Oral bioavailability” value in series [1] is listed as 18.5%.

The molecule `Cc1nc(-c2ccc(P(=O)(O)O)o2)c(CC(C)C)s1` [Compound 3.2, 2-Methyl-5-isobutyl4-[2-(5-phosphono)furanyl]thiazole] had an inhibition in vivo at 30 mg/kg in the series with Fasted Rats (Rattus norvegicus, iv, 30 mg/kg i.v.) of 55%.

For the molecule `CCc1sc(N)nc1-c1ccc(P(=O)(O)O)o1` [Compound 3.21, 2-Amino-5-ethyl-4-[2-(5-phosphono)furanyl]thiazole], the “Plasma Conc.” value in series [2] was determined as 25 ± 1 µM.

For the molecule `CCOC(=O)c1sc(N)nc1-c1ccc(P(=O)(O)O)o1` [Compound 3.25, 2-Amino-5-ethoxycarbonyl-4-[2-(5-phosphono)furanyl]thiazole], the inhibition in vivo at 10 mg/kg with Fasted Rats (setting [5]) was found to be 76%.

Take `Nc1nc(-c2ccc(P(=O)(O)O)o2)c(C2CC2)s1` [Compound 3.27, 2-Amino-5-cyclopropyl-4-[2-(5-phosphono)furanyl]thiazole]: in the series on Fasted Rat (dose 60 mg/kg, time point 3 h), the “% Glucose Lowering (maximum)” value is listed as 61%. The “% Oral bioavailability” value in series [1] is recorded as 32%.

Take `CCCSc1sc(N)nc1-c1ccc(P(=O)(O)O)o1` [Compound 3.58, 2-Amino-5-propylthio-4-[2-(5-phosphono)furanyl]thiazole hydrobromide]: the 50% inhibitory concentration (IC50) in series [3] (Hepatocyte) is 1200 nM. The molecule also registered an inhibition in vivo at 10 mg/kg in the series with Fasted Rats (setting [5]) of 82%.

As for `CSc1[se]c(N)nc1-c1ccc(P(=O)(O)O)o1` [Compound 3.71, 2-Amino-5-methylthio-4-[2-(5-phosphono)furanyl]selenazole], the “i.v. Glucose Lowering, %” value in the series on Fasted Rats (10 mg/kg i.v.) is given as 72%.

`CC(C)Cc1sc(Br)nc1-c1ccc(P(=O)(O)O)o1` [Compound 5.1, 2-bromo-5-isobutyl-4-[2-(5-phosphono)furanyl]thiazole]: in series [2], the “Liver Conc.” value was determined as 6.7 ± 0.7 nmol/g and the “Plasma Conc.” value stood at 100 ± 5.7 µM.

In the series with Fasted Rats (setting [5]), `Nc1nc(-c2ccc(P(=O)(O)O)o2)c(-c2cccs2)s1` [Compound 6.3] had an inhibition in vivo at 10 mg/kg of 24%.

For `CCCc1oc(N)nc1-c1ccc(P(=O)(O)O)o1` [Compound 10.2, 2-Amino-5-propyl-4-[2-(5-phosphono)furanyl]oxazole], the concentration at 1 h in series [2] turned out to be 22 ± 1.5 µM. In the series with Fasted Rat (dose 90 mg/kg, time point 3 h), the “% Glucose Lowering (maximum)” value came to 36%. Further, the bioavailability in series [1] (Sprague-Dawley, rat, urine) is 22%.

As to `CCCSc1oc(N)nc1-c1ccc(P(=O)(O)O)o1` [Compound 10.43, 2-Amino-5-propylthio-4-[2-(5-phosphono)furanyl]oxazole], at 10 mg/kg the inhibition in vivo with Fasted Rats (setting [5]) was 61%.

Take `Nc1ccc(C2CC2)c(-c2ccc(P(=O)(O)O)o2)n1` [Compound 15.20, 2-Amino-5-cyclopropyl-6-[2-(5-phosphono)furanyl]pyridine]: 10 mg/kg produced 24% inhibition in vivo in the series on Fasted Rats (setting [5]). In addition, in series [2], the concentration at 1 h amounted to 66.3 ± 3.9 µM and the “Liver Conc.” value is 13.1 ± 2.3 nmol/g.

Regarding `Nc1nc(C(=O)OCP(=O)(O)O)c(Br)s1` [Compound 18.2, 2-amino-5-bromo-4-phosphonomethoxycarbonylthiazole], the inhibition in vivo at 10 mg/kg in the series on Fasted Rats (setting [5]) came out at 80%.

On to `CCc1sc(N)nc1C(=O)OCP(=O)(O)O` [Compound 18.3, 2-amino-5-ethyl-4-phosphonomethoxycarbonylthiazole], for which the inhibition in vivo at 10 mg/kg with Fasted Rats (setting [5]) was determined as 75%.

Take `Cc1nc(-c2ccc(P3(=O)OCCC(c4ccncc4)O3)o2)c(CC(C)C)s1` (stereo not drawn) [Compound 19.17, 5-Isobutyl-2-methyl-4-{2-[5-(1-(4-pyridyl)-1,3-propyl)phosphono]furanyl}-thiazole]: the “% Oral bioavailability” value in series [1] is listed as 16.2%.

Consider `CC(C)Cc1sc(N)nc1-c1ccc(P2(=O)OCCC(c3ccncc3)O2)o1` (stereo not drawn) [Compound 19.18, 2-Amino-5-isobutyl-4-[2-{5-[1-(4-pyridyl)-propan-1,3-yl]phosphonol}furanyl)-thiazole], for which the IC50 in series [3] was determined as 10000 nM.

As for `CC(C)Cc1sc(N)nc1-c1ccc(P2(=O)OCCC(c3ccc(F)c(Br)c3)O2)o1` (stereo not drawn) [Compound 19.42, 2-Amino-5-isobutyl-4-{2-[5-(1-(4-fluoro-3-bromophenyl)-1,3-propyl)phosphono]furanyl}thiazole], in the series with Fasted Rat (dose 30 mg/kg, time point 3 h), the “% Glucose Lowering (maximum)” value came out at 26%. The “% Oral bioavailability” value in series [1] is on record as 10%. Besides, in series [4] (30 mg/kg intraperitoneal, parent compound 3.1 in 24 h urine), the “% excreted i.p.” value is 15.4%. Besides, the “% excreted p.o.” value in series [4] (30 mg/kg oral gavage, parent compound 3.1 in 24 h urine) is on record as 8.1%. Also, the “% absorption” value in series [4] (30 mg/kg, urinary excretion oral vs intraperitoneal) turned out to be 52%.

On to `CC(C)Cc1sc(N)nc1-c1ccc(P2(=O)OCCC(c3cccc(Cl)c3)O2)o1` (stereo not drawn) [Compound 19.46, 2-Amino-5-isobutyl-4-{2-[5-(1-(3-chlorophenyl)-1,3-propyl)phosphono]furanyl}thiazole], for which the “% Glucose Lowering (maximum)” value in the series with Fasted Rat (dose 30 mg/kg, time point 2 h) is on record as 53%.

`Cc1nc(-c2ccc(P(=O)(OCOC(=O)C(C)(C)C)OCOC(=O)C(C)(C)C)o2)cs1` [Compound 20.1, 2-methyl-4-[2-(5-dipivaloyloxymethylphosphono)furanyl]-thiazole]: the “% Oral bioavailability” value in series [1] is 46%.

For the molecule `Cc1nc(-c2ccc(P(=O)(OCOC(=O)C(C)(C)C)OCOC(=O)C(C)(C)C)o2)c(CC(C)C)s1` [Compound 20.3, 2-Methyl-5-isobutyl-4-{2-[5-(dipivaloyloxymethyl)phosphono]furanyl}thiazole], the “% Oral bioavailability” value in series [1] is 17.5%.

Turning to `CC(C)Cc1sc(N)nc1-c1ccc(P(=O)(OCOC(=O)C(C)(C)C)OCOC(=O)C(C)(C)C)o1` [Compound 20.4, 2-Amino-5-isobutyl-4-{2-[5-(dipivaloyloxymethyl)phosphono]furanyl}thiazole], the “% Oral bioavailability” value in series [1] is recorded as 11%.

In the case of `CCOC(=O)OCOP(=O)(OCOC(=O)OCC)c1ccc(-c2nc(N)sc2CC(C)C)o1` [Compound 20.9, 2-Amino-5-isobutyl-4-{-2-[5-bis(ethoxycarbonyloxymethyl)phosphono]-furanyl}thiazole], the IC50 in series [3] came out at 2200 nM. In addition, the “% Glucose Lowering (maximum)” value in the series with Fasted Rat (dose 90 mg/kg, time point 3 h) was 67%. Further, the “% Oral bioavailability” value in series [1] is listed as 17.4%.

Regarding `COC(=O)C(C)NP(=O)(Oc1ccccc1)c1ccc(-c2nc(N)sc2CC(C)C)o1` (stereo not drawn) [Compound 31.6, 2-amino-5-isobutyl-4-{2-[5-(O-phenyl-N-(1-methoxycarbonyl)ethyl)phosphonamido]furanyl}thiazole], in series [3], the IC50 is 2300 nM. The “% Glucose Lowering (maximum)” value in the series on Fasted Rat (dose 10 mg/kg, time point 3 h) worked out at 60%. In series [1], the “% Oral bioavailability” value is 19%.

On to `CCOC(=O)CNP(=O)(Oc1ccccc1)c1ccc(-c2nc(N)sc2CC(C)C)o1` (stereo not drawn) [Compound 31.8, 2-amino-5-isobutyl-4-{2-[5-(O-phenyl-N-ethoxycarbonylmethyl)phosphonamido]furanyl}thiazole], for which the IC50 in series [3] was 3000 nM. Besides, the “% Oral bioavailability” value in series [1] was 14%.

Consider `Cc1ccc(OCP(=O)(O)O)c2nc(N)sc12` [Compound 35.3, 2-Amino-4-phosphonomethoxy-7-methylbenzothiazole], for which 10 mg/kg produced 65% inhibition in vivo with Fasted Rats (setting [5]).

In the case of `CCc1c(SC#N)cc(OCP(=O)(O)O)c2nc(N)sc12` [Compound 41.1, 2-amino-7-ethyl-6-thiocyano-4-phosphonomethoxybenzothiazole], 10 mg/kg produced 80% inhibition in vivo in the series with Fasted Rats (setting [5]).
